According to US20250179108A1, “UTILITY OF NEMATODE SMALL MOLECULES” (California Institute of Technology, priority 2011, published 2025):
Entries after “also recorded” stand apart in the source; their conditions may differ.

Experiments:
P. redivivus males = assay: Attraction assay, Panagrellus redivivus males; type: in vivo
Description: (§1) FIG. 1A depicts, in accordance with an embodiment herein, a chemoattraction assay to reveal a gender specific mate finding cue in Panagrellus redivivus. A transparent template is attached below a 5-cm plate with a 16-mm bacterial lawn to delineate two scoring regions into which 0.6μL of the experimental sample and control sample are placed. Ten P. redivivus males are placed at points equidistant from the two scoring regions and the plate is recorded for 20 minutes (at a rate of 1 frame per second).
(§2) FIG. 1B depict attraction measured using software that computes the ratio of worm-pixels to total pixels for each scoring region.
(§3) FIG. 1C that the output is a plot of worm occupancy ratio vs. time for both scoring regions. The shown graph indicates strong attraction of P. redivivus males to the experimental sample. FIG. 2A depicts, in accordance with an embodiment herein, purification of the female sex pheromone in Panagrellus redivivus.
OP50 E. coli is grown on a standard 5 cm agar plate (made with standard Nematode Growth Medium). The bacterial lawn is 16 mm in diameter and is grown overnight at 20C before being used in trials. Two 4-mm spots ([…]) were placed on opposite sides of the bacterial lawn (using a transparent template to guide spot placement) and several minutes elapsed for the liquid to settle in before placing nematodes down on the assay. Recording began immediately upon worm placement. […] Trials were recorded for 20 minutes and frames were collected for analysis at 1 frame per second. […]
(§4) A video camera attached to the microscope produces a digital video stream, which is then analyzed. The ratio of time the average worm spends in each region of interest is calculated for every trial. […] Thus, worm pixels were counted instead of whole worms, allowing the inventors to take into account fractions of a worm in the region of interest. It also eliminated the need for a shape-based worm identification algorithm, and allowed each frame to be analyzed independently. […]

P. redivivus females [1] = assay: Attraction assay, Panagrellus redivivus females; type: in vivo
Description: as §1, §2, §3
OP50 E. coli is grown on a standard 5 cm agar plate (made with standard Nematode Growth Medium). The bacterial lawn is 16 mm in diameter and is grown overnight at 20C before being used in trials. Two 4-mm spots ([…]) were placed on opposite sides of the bacterial lawn (using a transparent template to guide spot placement) and several minutes elapsed for the liquid to settle in before placing nematodes down on the assay. Recording began immediately upon worm placement. […] of the control was placed on one side of the lawn and […] of the experimental cue was placed on the other side of the lawn, changing the location of the cue throughout trials, between left/right and top/bottom to avoid bias. Nematodes were isolated by gender at the L4 stage the day before being used in trials as developed adults. Five worms were each placed at two points equidistant from the foci of the scoring region (ten total). Trials were recorded for 20 minutes and frames were collected for analysis at 1 frame per second. Results were averaged from at least three different trials. For every nematode species in this study, the inventors tested different total number of worms (using water in both scoring regions) to determine the minimum number of worms necessary for consistent unbiased results over a 20-minute trial. […]
as §4

P. redivivus females [2] = assay: Repulsion scoring by behavioral response (immediate exit of the conditioned region); type: in vivo, Panagrellus redivivus; conditions: high concentrations
Source text: The inventors thus used a separate method for scoring repulsion that focused on behavioral response rather than time spent in each region.

[3] = test system: males from many of the nematode species tested; assay: Attraction assay, males of different nematode species; type: in vivo; conditions: 1 nM, 1 μM and 1 mM tested
Description: FIG. 5A depicts, in accordance with an embodiment herein, that ascarosides mediate behavior of nematode species from diverse generas. Species that were amenable to test in the attraction assay (sufficient movement, unbiased direction, reproducible controls) were scored for attraction or repulsion toward three concentrations (1 mM, 1 μM, and 1 nM: from left to right) of 13 different ascarosides. Pvalues were determined using the Student's t-test with a P<0.05. The score “0” represents any findings where P>0.05.
(§5) To investigate the biological function of the ascarosides identified in the MS screen, the inventors used a bioassay (FIGS. 1A-1C) to measure attraction of different nematode species to a wide range of ascaroside concentrations (1 nM, 1 μM, and 1 mM). For these bioassays, nematode species had to fulfill several requirements, such as sufficient movement on bacterial lawns, low tendency to aggregate, easy to grow, and generally reproducible locomotive behavior. This study was limited to a survey of males from different species, because males tended to move much more evenly across our bioassay lawn than females and hermaphrodites (with the exception of P. redivivus females, which move well and were therefore in this study.)
OP50 E. coli is grown on a standard 5 cm agar plate (made with standard Nematode Growth Medium). The bacterial lawn is 16 mm in diameter and is grown overnight at 20C before being used in trials. Two 4-mm spots ([…]) were placed on opposite sides of the bacterial lawn (using a transparent template to guide spot placement) and several minutes elapsed for the liquid to settle in before placing nematodes down on the assay. Recording began immediately upon worm placement. […] of the control was placed on one side of the lawn and […] of the experimental cue was placed on the other side of the lawn, changing the location of the cue throughout trials, between left/right and top/bottom to avoid bias. Nematodes were isolated by gender at the L4 stage the day before being used in trials as developed adults. Five worms were each placed at two points equidistant from the foci of the scoring region (ten total). Trials were recorded for 20 minutes and frames were collected for analysis at 1 frame per second. Results were averaged from at least three different trials. For every nematode species in this study, the inventors tested different total number of worms (using water in both scoring regions) to determine the minimum number of worms necessary for consistent unbiased results over a 20-minute trial. The total number of worms used in the multiple species assays depending on that species' optimal parameters. 10 worms were for P. redivivus males and females, 20 worms were used for C. elegans males, O. dolichuridae males, and C. sp7 males and 14 worms were used forS. glaseri males.
A video camera attached to the microscope produces a digital video stream, which is then analyzed. The ratio of time the average worm spends in each region of interest is calculated for every trial. For ease of implementation, it was assumed that all worms in a single experiment are roughly the same size. Thus, worm pixels were counted instead of whole worms, allowing the inventors to take into account fractions of a worm in the region of interest. It also eliminated the need for a shape-based worm identification algorithm, and allowed each frame to be analyzed independently. The inventors applied a band-pass filter to each frame to eliminate the effect of uneven lighting and also accentuate the worms against the background. The worm was then identified after thresholding the filtered image. Throughout each experiment, the inventors know the locations and sizes of the regions of interest. Through the filtering described above, the inventors know which pixels are occupied by worms and which ones are not. They are then able to calculate the ratio of worm-pixels to all pixels inside the region of interest to produce the worm- occupancy ratio. […]

asthmatic mice = assay: Ovalbumin induction of asthma, allergic airway inflammation in mice; type: in vivo; conditions: for eosinophils / mucus hyper-production / cellular infiltration into the lungs: asthmatic mice; for cellular infiltration into the lungs: lung histology
Description: FIG. 7A depicts, in accordance with an embodiment herein, sensitization with OVA+ Control/Alum (N=3) and sensitization with OVA+NES/Alum (N=3), in Nippostrongylus brasiliensis. The experimental model is ovalbumin inducation of asthma. […] No worm, living or dead, is introduced into the asthma model. Furthermore, proteins were eliminated by denaturing at 100C for 25 minutes, and filtering through a 10 kDa filter. FIGS. 7B-7D depict the histology of mice treated with NES.
The effects of ascarosides are examined for an allergic airway inflammation.

C. elegans = conditions: cited from earlier work
C. elegans males [4] = conditions: reduced attraction at high concentrations; cited from earlier work
C. elegans males [5] = assay: Attraction assay, C. elegans males; type: in vivo, Caenorhabditis elegans; conditions: tested at 1 nM, 1 μM and 1 mM
Description: as §5
OP50 E. coli is grown on a standard 5 cm agar plate (made with standard Nematode Growth Medium). […] Trials were recorded for 20 minutes and frames were collected for analysis at 1 frame per second. […]
as §4

[6] = any of the tested concentrations

Row | SMILES | attraction of males [3] | eosinophils (asthmatic mice) | mucus hyper-production (asthmatic mice) | cellular infiltration into the lungs (asthmatic mice) | further results
1 | CC1O[C@@H](O[C@H](C)CCCCC(=O)O)C(O)C[C@H]1O (single isomer, unassigned; (-)) [ascr #1, (−) 6-(3,5-dihydroxy-6-methyltetrahydropyran-2-yloxy) heptanoic acid] | attracted | reduction | decreased | decreased | male attraction (Attraction Bioassay) (P. redivivus males; P. redivivus males): strongly attracted; also recorded: full male attraction; female attraction (P. redivivus females [1]; [6]): not attracted; female attraction (P. redivivus females [1]; between 100 and 106 fmol, FIG. 2E): not attracted; female repulsion, semi-automated scoring method (P. redivivus females [1]; time spent in each region): not significantly repelled; female repulsion, immediate exit of the conditioned region before entering a full worm's length (P. redivivus females [2]): significantly repelled; eosinophils (asthmatic mice; listed as Ascr #1): some effect; induction of diapause (dauer) (C. elegans): weakly induces diapause
2 | CC(=O)CCCC(C)OC1OC(C)C(O)CC1O (centres unmarked) [ascr #2] | – | – | – | – | male response to hermaphroditic sex pheromones (C. elegans males [4]): biphasic response
3 | CC1O[C@@H](O[C@H](C)CCCC/C=C/C(=O)O)[C@@H](O)C[C@H]1O (some centres unmarked) [ascr #3] | attracted | reduction; also recorded: some effect | decreased | decreased | male response to hermaphroditic sex pheromones (C. elegans males [4]): biphasic response
4 | C[C@H](CC/C=C/C(=O)O)O[C@@H]1O[C@@H](C)[C@H](O)C[C@H]1O [ascr #7] | attracted | reduction; also recorded: markedly reduced | decreased | decreased | male attraction (P. redivivus males; 1 mM and 1 μM): attracted; male response (attraction) (C. elegans males [5]): only respond to 1 mM; effect on allergic airway inflammation (asthmatic mice; synthesized ascarosides tested individually, FIG. 10B): inhibitory effect
5 | C[C@H](CC/C=C/C(=O)Nc1ccc(C(=O)O)cc1)O[C@@H]1O[C@@H](C)[C@H](O)C[C@H]1O [ascr #8] | attracted | – | – | – | –
6 | CC1O[C@@H](O[C@H](C)CCC(=O)O)[C@@H](O)C[C@H]1O (some centres unmarked) [ascr #9] | attracted | – | – | – | –
7 | CC1O[C@@H](O[C@H](C)CCCCCCC(=O)O)[C@@H](O)C[C@H]1O (some centres unmarked) [ascr #10] | attracted | – | – | – | male attraction (P. redivivus males; very high, nonphysiological concentration of 1 mM): some attraction; female attraction (P. redivivus females [1]; [6]): do not respond
